Data on one molecule can be found in patent US12465607B2, “ALK inhibitors for treatment of ALK-negative cancer and plasma cell-mediated diseases” (UNIVERSITETET I OSLO, priority 2019, dated 2025).

Assay [1] relates to HeLa cells expressing inducible IgM. Kind of assay: Apoptosis (caspase 3 cleavage immunoblot) in HeLa cells expressing inducible IgM. The following applies: 1 μM, 24 h. The assay is classed as cell-based. How it is done: (§1) In A, HeLa cells expressing inducible IgM (heavy and light chain) were treated with mifepristone to induce IgM expression over a period of 2 weeks. Afterwards, cells were treated with 1 μM crizotinib for 24 h followed by lysis and immunoblotting for caspase 3. […] Cleavage of caspase 3 is indicative of apoptosis induction. + and − indicate cells with or without mifepristone treatment, respectively. B, Concentration-response curves for the effect of crizotinib treatment (24 h) on the viability of three different myeloma cell lines. Results are the means of three independent experiments. C, Expression levels of LTK and ALK mRNA in the indicated myeloma cell lines determined by qPCR.
HeLa cells were cultured in DMEM (GIBCO) supplemented with 10% FCS and 1% Penicillin/Streptomycin (GIBCO). For overexpression of plasmids, cells were transfected using either Fugene 6 or with TransIT-LT1 (Mirus). For knockdown experiments, cells were reverse transfected with 10 nM siRNA (final concentration) using HiPerfect (Qiagen) according to the manufacturer's instructions.
Cells were washed twice with PBS and collected in lysis buffer (50 mM Tris-HCl, pH7.4; 1 mM EDTA, 100 mM NaCl, 0.1% SDS and 1% NP-40) supplemented with proteinase and phosphatase inhibitor (Pierce Protease and Phosphatase Inhibitor Mini Tablets, EDTA-free). […]
A general note: Immunoblotting shows a protein as a band on a membrane.

A further assay has as its system ARH77. Kind of assay: Myeloma cell line viability, CCK-8, 24 hr. Format: cell-based, human. Conditions: ARH77, 24 h. The protocol:
as §1
The cell lines used were the human multiple myeloma cell lines L363 (DSMZ catalogue number ACC 49), AMO-1 (DSMZ catalogue number ACC 538) and ARH-77 (ATCC CRL-1621).
Multiple myeloma cell lines were maintained in RPMI-1640 culture medium (Sigma-Aldrich, Buchs, Switzerland) supplemented with 10% heat-inactivated fetal bovine serum (FBS), 100 μg/ml streptomycin and 100 U/ml penicillin/streptomycin (Sigma-Aldrich, Buchs, Switzerland). […]
The viability of the cells was determined 24 hr post treatment using Cell Counting Kit-8 (CCK-8; MedChemExpress, NJ, USA) according to the manufacturer's instructions.

A further assay relates to HeLa cells. Kind of assay: ER-to-Golgi trafficking in HeLa cells (ERES staining, mannosidase-II RUSH reporter). Conditions: RUSH reporter 20 min after biotin. Format: cell-based. How it is done: In A, HeLa cells expressing flag-tagged LTK were treated with 1 μM of crizotinib or ceritinib for 30 minutes. Afterwards, cells were lysed and immunoblotted against phosphorylated LTK, which is used as a surrogate for the active form of LTK. […] B, HeLa cells were treated with 1 μM ceritinib for 30 minutes followed by fixation and staining for Sec31A to label ERES. Cells were imaged by confocal microscopy and ERES were counted using ImageJ. C, HeLa cells stably expressing mCherry-tagged mannosidase-II RUSH reporter. Cells were treated with biotin to release the reporter from the ER. After 20 min, a time point where most of the reporter has reached the Golgi, cells were fixed and immunostained for GM130 to label the Golgi apparatus. […] D, IgA secreting AMO-1 cells were treated for 3 h with the indicated doses of crizotinib and the amount of IgA in cell supernatant was determined by ELISA.

A further assay deals with CLL cells. Kind of assay: Viability of activated CLL cells from patients, CellTiter-Glo 72 h (IC50, DSS). The following applies: for IC50: Homo sapiens, CLL cell. Format: cell-based, human. The protocol:
CLL cells from patients were stimulated by adherent murine L cells expressing CD40L, BAFF and April for 24 h. The L cells were then removed by immuno-magnetic separation. Washed CLL cells were plated into 384-well plate format (10,000 cells/well) and tested against crizotinib at 5 concentrations in 10-fold dilutions (plates dispensed by an Echo acoustic dispenser, LabCyte Inc., San Jose, CA, USA). The plate was incubated in a humidified environment at 37° C. and 5% CO2. Cell viability was determined after 72 h using the CellTiter-Glo (Promega, Madison, WI, USA) ATP assay according to the manufacturer's instructions and using an Envision 2102 Multilabel reader (PerkinElmer, Shelton, CT, USA). Relative percentage cell viability was calculated by normalising luminescence units for each well to negative (DMSO 0.1%) and positive (100 μM BzCl) control wells. Curve fitting was conducted to obtain IC50 values.
Quantitative scoring of differential drug sensitivity for individual drugs was calculated as drug sensitivity scores (DSS values, Yadav et al., Scientific Reports 4: 5193, 2014). DSS values were calculated for integrated multiple dose-response relationships in high-throughput compound testing as shown.
Background: ATP-based viability assays read luminescence as a measure of living cells.

The subject of the next assay is plasma cells. Kind of assay: Viability of in vitro-generated IRF4/BLIMP1 double positive end stage plasma cells. The assay is classed as cell-based. The following applies: Homo sapiens, B-cell, 120 h; B-cells stimulated 5 days, inhibitor day 5-7. An excerpt:
Negatively selected normal B-cells from blood bank donors were stimulated with sCD40L, IL-21, IL-4 for 5 days. This protocol allows generation of 10-20% end differentiated plasma cells that express IRF4 and BLIMP1. From day 5-7, cells were exposed to titred crizotinib in A, or ceritinib in B.
In A and B, IRF4 vs BLIMP1 in gated CD19^+ B cells is shown. IRF4 and BLIMP1 double positive cells represent end stage plasma cells. Such plasma cells are gated (blue elliptic region) and percent plasma cells are shown. The conditions without inhibitor (0) and with linear Alk-inhibitor (crizotinib, A; ceritinib, B) are shown for concentrations 0.01 μM, 0.1 μM, 1 μM, 10 μM and 100 μM.

The mark [2] stands for this setting: CLL cells from 21 patients, 72 h.

Read-outs that look alike come from different tables or passages of the source. Some results are limits rather than exact numbers.

Regarding `C[C@@H](Oc1cc(-c2cnn(C3CCNCC3)c2)cnc1N)c1c(Cl)ccc(F)c1Cl` [crizotinib, 3-[(1R)-1-(2,6-dichloro-3-fluorophenyl)ethoxy]-5-(1-piperidin-4-ylpyrazol-4-yl)pyridin-2-amine], the “apoptosis (caspase 3 cleavage)” value in assay [1] (HeLa cells with chronic increase of secretory burden (IgM 2 weeks)) is “marked increase in apoptosis”. In addition, the “apoptotic response (caspase 3 cleavage)” value in assay [1] (non-secretory HeLa cells) is “did not show any apoptotic response”. Besides, the cell viability entry with ARH77 is given as “clear reductions in cell viability”. The ER-to-Golgi trafficking entry in the assay on HeLa cells is reported as “less of the reporter in the Golgi region”. For the same molecule, the “share of patients with CLL cells highly sensitive by drug sensitivity score (DSS)” value in the assay on CLL cells (21 patients) is “a third”. Besides, in the assay with CLL cells (CLL cells from 12 new patients), the “patients with susceptible CLL cells, cut-off DSS=10” value is 10/12. The “patient samples with CLL cells sensitive” value in the assay on CLL cells (setting [2]) was 17 of 21. For the same molecule, the “patient samples with CLL cells sensitive, percent” value in the assay with CLL cells (setting [2]) is 81%. The concentration for half-maximal inhibition (IC50) – broadly, the concentration at which inhibition is half-maximal – with CLL cells (3 patient samples, read-out: IC50, highly sensitive CLL samples) is < 200 nM; with CLL cells (3 patient samples, read-out: IC50, supersensitive CLL samples) it was < 10 nM; in the assay on CLL cells (11 patient samples, read-out: IC50, normally sensitive CLL samples), < 2000 nM; in the assay with plasma cells, 800 nM. Besides, the “patient samples highly sensitive” value with CLL cells (IgVH mutated CLL) is listed as “Three out of 15”; in the assay on CLL cells (IgVH unmutated CLL) it was “Four of six”. Also, the “patient samples with low sensitivity” value is “Four of the 15” in the assay with CLL cells (IgVH mutated CLL) and “None” in the assay with CLL cells (IgVH unmutated CLL).
